Data from patent US8007994B2, “Compositions and methods of modulating cholesterol metabolism” (The Board of Regents of the University of Texas System, priority 1998, dated 2011).
Entries after “also recorded” stand apart in the source; their conditions may differ. Read-outs that look alike come from different tables or passages of the source.

Experiments:
total lipid absorption = test: Total lipid absorption determined gravimetrically in mice; assay type: in vivo, mouse
Procedure: Total lipid absorption was determined in the study described above (FIG. 4) to establish whether LG268 effects were specific to cholesterol or were affecting lipid absorption or intestinal integrity. Total lipid absorption was determined gravimetrically (Schwartz et al., 1998) by establishing lipid intake (amount of food consumed over 72 hours×dietary lipid content) and lipid output (fecal lipid content×quantity of stool collected over the same 72 hours) to calculate the fraction of lipid consumed that was absorbed. […] The gravimetric determination of lipid absorption shown in FIG. 5 confirmed these findings. The reduction in lipid absorption seen in these animals can be accounted for by the reduction in cholesterol uptake (cholesterol comprises ˜5% of the lipid in these diets and is extracted and measured as lipid in these analyses). Therefore, the effects of LG268 are specific for cholesterol absorption.

liver cholesterol [1] = test: Liver cholesterol accumulation in cholesterol-fed LXRα wild-type and knockout mice; assay type: in vivo, mouse; conditions: 0.2% cholesterol diet, 30 mg/kg body weight in diet, 10 days
Procedure: Male, A129 strain mice (LXRα+/+ and −/−) were fed Teklad 7001 powdered diet supplemented with 0.2% cholesterol 0.015% LG268 (provides 30 mg/kg body weight), vehicle, or 2% surfomer (a surfactant polymer that inhibits cholesterol absorption, Turley et al., 1991) ad libitum for 10 days. Animals were sacrificed and a liver aliquot was saponified and extracted and the cholesterol content was determined by gas chromatography using stigmastanol as an internal standard (Turley et al., 1994). Liver cholesterol accumulation was prevented by ingestion of LG268 in both LXRα knockout and wild-type mice. The two most likely mechanisms for this effect are (1) increased cholesterol output by enhanced bile acid production and secretion and/or (2) decreased cholesterol input by diminished cholesterol absorption.
Male, A129 strain mice were fed Teklad 7001 powdered diet supplemented with 0.2% cholesterol and various levels of LG268 (providing 1.4 to 30 mg/kg body weight) or vehicle ad libitum for 10 days. […] Liver cholesterol concentration was determined as by gas chromatography.
Male, A129 strain mice were fed Teklad 7001 powdered diet supplemented with 0.2% cholesterol LG268 or LG721 (to provide 3 mg/kg body weight) ad libitum for 10 days. […] Liver cholesterol concentration was determined as by gas chromatography.

cholesterol absorption [2] = test: Cholesterol absorption by the fecal isotope ratio method in mice; assay type: in vivo, mouse
Procedure: Male, A129 strain mice (LXRα+/+ and −/−) were fed Teklad 7001 powdered diet supplemented with 0.2% cholesterol 0.015% LG268 (provides 30 mg/kg body weight), vehicle, or 2% surfomer ad libitum for 10 days. On day 7, mice received a gavage dose of [22,23-3H]b-sitostanol (American Radiolabeled Chemicals, St. Louis, Mo.) and [4-14C]cholesterol (Amersham) for the measurement of cholesterol absorption by the fecal isotope ratio method (Turley et al., 1994). […] In light of the extreme potency of LG268, a dose-response analysis was performed.
(§1) Male, A129 strain mice were fed Teklad 7001 powdered diet supplemented with 0.2% cholesterol and various levels of LG268 (providing 1.4 to 30 mg/kg body weight) or vehicle ad libitum for 10 days. On day 7, mice received a gavage dose of [22,23-3H]b-sitostanol (American Radiolabeled Chemicals, St. Louis, Mo.) and [4-14C]cholesterol (Amersham) for the measurement of cholesterol absorption by the fecal isotope ratio method (Turley et al., 1994). Liver cholesterol concentration was determined as by gas chromatography.
as §1, with “cholesterol” for “cholesterol and various levels of”, “or LG721 (to provide 3” for “(providing 1.4 to 30”, “weight)” for “weight) or vehicle”

cholesterol biosynthesis = test: Rates of sterol synthesis in vivo ([3H]water incorporation); set-up: species or system mouse; conditions: mice, 0.2% cholesterol diet, 7 days
Procedure: Male, A129 mice were fed Teklad 7001 diet supplemented with 0.2% cholesterol and vehicle or LG268 (at 3 or 30 mg/kg body weight) for 7 days ad libitum. Rates of sterol synthesis were measured in vivo as described (Jeske and Dietschy, 1980, Turley et al., 1981) based on the incorporation of [^3H]water into digitonin-precipitable sterols over one hour.

cholesterol absorption [3] = test: Cholesterol absorption by the fecal isotope ratio method in hamsters; assay type: in vivo, Golden Syrian hamster; conditions: male hamsters, 0.2% cholesterol diet, 3 or 30 mg/kg body weight
Procedure: (§2) Hamsters provide a better animal model for cholesterol metabolism than mice (however, mice offer the advantage that they can be genetically manipulated, for example the LXRα−/− strain). […] Male Syrian Golden hamsters were fed Teklad 7001 diet supplemented with 0.2% cholesterol and vehicle, LG268 (providing 3 or 30 mg/kg body weight) or 2% surfomer. On day 7, they received a gavage dose of [22,23-3H]b-sitostanol (American Radiolabeled Chemicals, St. Louis, Mo.) and [4-14C]cholesterol (Amersham) for the measurement of cholesterol absorption by the fecal isotope ratio method (Turley et al., 1994). Stools were collected from the individually housed hamsters over the next 72 hours. On day 12 the animals were sacrificed and liver was removed for cholesterol determination by gas chromatography (Turley et al., 1994). […] Therefore the effects of LG268 on cholesterol homeostasis are not limited to mice, but observed in other mammalian species as well.

RXR = conditions: cited from earlier work
liver cholesterol [4] = test: Liver cholesterol in cholesterol-fed Golden Syrian hamsters; assay type: in vivo, Golden Syrian hamster; conditions: male hamsters, 0.2% cholesterol diet, 3 or 30 mg/kg body weight, 12 days
Procedure: as §2

ACAT-2 mRNA = test: Northern analysis of duodenal intestine samples, ACAT-2; assay type: in vivo, mouse; conditions: duodenum of treated mice, 10 days
Source text: (§3) It is known that exogenous cholesterol is taken up in the distal duodenum (and perhaps proximal jejunum) by the intestinal enterocyte, is rapidly esterified (by ACAT) and packaged into chylomicrons for transport into the lymphatic system (reviewed by Homan and Krause, 1997). Recently, caveolin has also been proposed to play a role in cholesterol trafficking in the intestine (Field et al., 1998). Disruption of any of these processes could result in diminished cholesterol absorption capacity. As LG268 is an agonist of the nuclear hormone receptor RXR, it is likely that the primary targets of this drug would be transcriptionally regulated and show a change in the steady state level of mRNA for critical target genes. Northern analyses were performed on duodenal intestine samples obtained in the experiment described in FIG. 4. Results were quantitated using a phosphoimager (Molecular Dynamics), standardized against b-actin controls, and mathematically adjusted to yield 1 unit for the vehicle-treated control group.

bile acid production = test: Bile acid pool size and fecal bile acid excretion in cholesterol-fed mice; assay type: in vivo, mouse; conditions: LXRα +/+ and −/− mice, 2% cholesterol diet, 30 mg/kg oral gavage daily, 7 days
Procedure: Female, mixed strain (LXRα+/+ and −/−) mice were fed Teklad 7001 2% cholesterol (w/w) diet ad libitum for 7 days. Each day mice received a single bolus dose of LG268 ([…] to provide 30 mg/kg body weight) or vehicle by oral gavage. Mice were killed and liver cholesterol was determined as described in FIG. 1. Small intestine (with luminal contents) and gall bladder were extracted together to determine bile acid pool size and composition as described by Schwartz et al., 1998. Stools were collected over 3 days from the individually housed mice, dried, weighed and ground. Fecal bile acid content was determined by an enzymatic method (Turley et al., 1996).

caveolin mRNA = test: Northern analysis of duodenal intestine samples, caveolin; assay type: in vivo, mouse; conditions: duodenum of treated mice, 10 days
Source text: as §3

[5] = test system: ATP-binding cassette protein-1 (ABC-1); test: Northern analysis of intestinal ABC-1 expression; assay type: in vivo; conditions: mouse small intestine, oral 30 mg/kg body weight, as little as 6 hours
Procedure: The ATP-binding cassette protein-1 is a newly described membrane protein implicated in reverse cholesterol transport, in other words the efflux of cholesterol from peripheral tissues to the liver (Young and Fielding, 1999; Tall, 1998).
Male A129 strain mice were fed Teklad 7001 powdered diet supplemented with 0.2% cholesterol and 0.015% LG268, equimolar LG721 (see example 12) or vehicle at 7 pm (beginning of dark cycle). Animals were sacrificed at 1 am (6 hour time point) or 7 am (12 hr), the intestine was removed and rinsed with ice-cold phosphate buffered saline, then subdivided into 5 segments of equal length (˜8 cm each, FIG. 10A) or 3 segments (the proximal segment representing the duodenumis depicted in FIG. 10B). Intestinal mucosa was obtained from each segment and poly (A+) RNA isolated for northern analyses. Results were quantified using a phosphorimager, standardized against b-actin controls, and mathematically adjusted to yield 1 unit for the vehicle-treated control group.

ACAT-1 mRNA = test: Northern analysis of duodenal intestine samples, ACAT-1; assay type: in vivo, mouse; conditions: duodenum of treated mice, 10 days
Source text: as §3

Cc1cc2c(cc1C1(c3ccc(C(=O)O)cn3)CC1)C(C)(C)CCC2(C)C [LG268]
stool output (total lipid absorption; wild-type mice receiving LG268 in diet): normal | general lipid absorption (total lipid absorption; wild-type mice, 0.2% cholesterol diet, LG268 in diet, 10 days): not experiencing general lipid malabsorption or steattorhea; also recorded: unaffected | liver cholesterol accumulation (liver cholesterol [1]): prevented | cholesterol absorption (cholesterol absorption [2]; LXRα +/+ and −/− mice, 0.2% cholesterol diet, 30 mg/kg body weight, 10 days, 30 mg/kg): completely inhibited; also recorded: total block in cholesterol absorption | inhibition of cholesterol absorption compared with 2% surfomer (cholesterol absorption [2]; mice, LG268 0.015% of diet, dose 130-fold lower than surfomer): more effective than surfomer | lowest effective dose preventing liver cholesterol accumulation by inhibiting cholesterol absorption (cholesterol absorption [2]; wild-type mice, 0.2% cholesterol diet, doses 1.4 to 30 mg/kg, 10 days): 1.4 mg/kg body weight | cholesterol biosynthesis (cholesterol biosynthesis; 3 or 30 mg/kg body weight): increased cholesterol biosynthesis | sterol synthesis in spleen, kidney and carcass (cholesterol biosynthesis; 3 or 30 mg/kg, dose-dependent): Increased synthesis | cholesterol absorption (cholesterol absorption [3]): inhibiting cholesterol absorption | RXR binding and activation (RXR): binds and activates RXR | RXR binding and activation (RXR; listed as LG100268): binds and activates all RXR subtypes | binding to other related nuclear receptors (RXR; selectivity): fails to exhibit binding | liver cholesterol (liver cholesterol [4]): effective in hamsters in reducing liver cholesterol | ACAT-2 mRNA level (ACAT-2 mRNA): No apparent change | liver cholesterol accumulation prevented via bile acid production (bile acid pool size and excretion) (bile acid production): did not prevent the liver accumulation by increasing bile acid production | caveolin mRNA level (caveolin mRNA): No apparent change | ABC-1 expression [5]: greatly increased | ACAT-1 mRNA level (ACAT-1 mRNA): No apparent change
